Residues, ends and D or L forms follow the SMILES beside them. No end group written: not given here. *: point of attachment. Stearoyl = CCCCCCCCCCCCCCCCCC(=O)*; Lauroyl = CCCCCCCCCCCC(=O)*
Assays:
P. aeruginosa Type I = details: pH 7
E. coli J96 = details: J96, pH 7
human red blood cells = details: for Hemolysis (LD50): red cells of human, 1 h
S. pyogenes Eaton = details: pH 7
B. anthracis = details: cell survival by optical density at 650 nm
E. coli IA2 = details: IA2, pH 7
[1] = system: erythrocytes (hemolytic activity); details: cited from earlier work
S. pyogenes Wilson = details: pH 7
S. aureus MN8 = details: MN8, pH 7
S. aureus MNHO = details: pH 7
bacteria = experiment: Example 3 antibacterial activity of lauric acid conjugates; assay type: cell-based; details: lauric acid conjugate vs unconjugated peptide
From the text: The hemolytic activity of the KAK and AKK peptides and conjugates was low. […] Fatty acid conjugation will improve the usefulness of peptides as antimicrobial agents by enhancing their ability to form secondary structures upon interacting with the bacterial membranes.

E. coli 055:B5 LPS = experiment: Limulus amoebocyte lysate assay for LPS neutralization; assay type: biochemical; details: for IC50: 0.04 unit E. coli 055:B5 LPS, chromogenic QCL-1000 kit, read-out: LPS Binding (IC50); for LPS binding activity, fold higher than the SC4 peptide: relative to SC4
Method: Limulus amoebocyte lysate assay for lipopolysaccharide (LPS) neutralization. The ability of SC4 peptide and amphiphiles to neutralize endotoxin was measured using the chromogenic QCL-1000 kit from BioWhittaker, Inc. (Walkersville, Md). This method is quantitative for Gram-negative bacterial endotoxin (LPS) and uses peptide inhibition of LPS-mediated activation of a proenzyme as a measure of activity (Young et al., J. Clin. Invest. 51, 1790-1797 (1972)). Peptides of the appropriate concentration were mixed with Limulus amoebocyte lysate, 0.04 unit (0.01 nanogram (ng)) of E. coli 055:B5 LPS (SIGMA), and a colorless synthetic substrate (Ac-Ile-Glu-Ala-Arg-pNA) (SEQ ID NO: 18). Peptide binding to LPS was determined by monitoring enzymatic conversion of the substrate to yellow p-nitroaniline (pNA) via absorption at 410 nm. Endotoxin concentration was determined from the initial rate of enzyme activation. IC50 (concentration displaying 50% inhibition) values for LPS binding were determined by fitting to a dose-response curve.

[2] = system: drug-resistant strains of S. aureus (W73134 and M49780); experiment: Example 2 antibacterial effect on drug-resistant strains; assay type: cell-based; details: W73134 and M49780, FIG. 15 and 16
[3] = system: MN8, Hoch, Knutson, FR1722, and RN6390; experiment: Example 2 antibacterial effect on five Gram-positive strains; assay type: cell-based; details: FIG. 10-14

Row | Molecule | Bactericidal Activity (LD50) S. aureus M49780 (S. aureus M49780) [µM] | Bactericidal Activity (LD50) P. aeruginosa Type I (P. aeruginosa Type I) [µM] | Bactericidal Activity (LD50) E. coli J96 (E. coli J96) [µM] | Hemolysis (LD50) (human red blood cells) [µM] | Bactericidal Activity (LD50) S. pyogenes Eaton (S. pyogenes Eaton) [µM] | Bactericidal Activity (LD50) B. anthracis (B. anthracis) [µM] | Bactericidal Activity (LD50) E. coli IA2 (E. coli IA2) [µM] | Bactericidal Activity (LD50) S. pyogenes Wilson (S. pyogenes Wilson) [µM] | Bactericidal Activity (LD50) S. aureus W73134 (S. aureus W73134) [µM] | Bactericidal Activity (LD50) S. aureus MN8 (S. aureus MN8) [µM] | Bactericidal Activity (LD50) S. aureus MNHO (S. aureus MNHO) [µM] | Hemolytic activity (eukaryotic cell) | other results
1 | CC[C@H](C)[C@H](NC(=O)[C@@H](NC(=O)[C@H](CCCCN)NC(=O)[C@H](Cc1c[nH]c2ccccc12)NC(=O)[C@H](CCCCN)NC(=O)[C@H](CC(C)C)NC(=O)[C@H](Cc1c[nH]cn1)NC(=O)[C@H](CCCNC(=N)N)NC(=O)[C@H](CCCCN)NC(=O)[C@H](Cc1ccccc1)NC(=O)[C@H](CC(C)C)NC(=O)[C@@H](N)CCCCN)[C@@H](C)CC)C(N)=O [SC4, KLFKRHLKWKII, reference compound] (H-KLFKRHLKWKII-NH2) | 2.0 | 0.028 | 0.12 | >375 | >2.0 | >15 | 0.21 | >1.0 | 2.3 | 1.3 | 2.3 | – | Concentration up to which little hemolytic activity was demonstrated (human red blood cells): > 400 µM; Concentration below which no hemolytic activity is shown [1]: ≥ 100 µM
2 | conjugated AKK: AKK peptide YGAA[KKAAKAA](2) conjugated with lauric acid (YGAAKKAAKAA; numbers in words are those of the source; also: dimer [KKAAKAA](2), lauric acid conjugate, place not given here) | – | – | – | – | – | – | – | – | – | – | – | low | Antimicrobial activity relative to unconjugated peptide (bacteria): increased antimicrobial activity
3 | CCCCCCCCCCCC(=O)N[C@@H](CCCCN)C(=O)N[C@@H](CC(C)C)C(=O)N[C@@H](Cc1ccccc1)C(=O)N[C@@H](CCCCN)C(=O)N[C@@H](CCCNC(=N)N)C(=O)N[C@@H](Cc1c[nH]cn1)C(=O)N[C@@H](CC(C)C)C(=O)N[C@@H](CCCCN)C(=O)N[C@@H](Cc1c[nH]c2ccccc12)C(=O)N[C@@H](CCCCN)C(=O)N[C@H](C(=O)N[C@H](C(N)=O)[C@@H](C)CC)[C@@H](C)CC [C12-SC4] (Lauroyl-KLFKRHLKWKII-NH2) | 0.66 | 0.035 | 0.077 | 6.2 | 0.066 | 3.25 | 0.079 | 0.16 | 0.62 | 0.68 | 0.34 | – | IC50 (E. coli 055:B5 LPS): 230 nM; LPS binding activity, fold higher than the SC4 peptide (E. coli 055:B5 LPS): approximately 3 fold; Change in hemolytic activity on fatty acid conjugation (eukaryotic cell): large increase in hemolytic activity; Killing of drug-resistant S. aureus strains [2]: killed both drug-resistant strains; Antimicrobial activity relative to unconjugated peptide (bacteria): increased antimicrobial activity
4 | CCCCCCCCCCCCCCCCCC(=O)N[C@@H](CCCCN)C(=O)N[C@@H](CC(C)C)C(=O)N[C@@H](Cc1ccccc1)C(=O)N[C@@H](CCCCN)C(=O)N[C@@H](CCCNC(=N)N)C(=O)N[C@@H](Cc1c[nH]cn1)C(=O)N[C@@H](CC(C)C)C(=O)N[C@@H](CCCCN)C(=O)N[C@@H](Cc1c[nH]c2ccccc12)C(=O)N[C@@H](CCCCN)C(=O)N[C@H](C(=O)N[C@H](C(N)=O)[C@@H](C)CC)[C@@H](C)CC [C18-SC4] (Stearoyl-KLFKRHLKWKII-NH2) | 0.24 | 0.042 | 0.23 | 1.9 | 0.11 | 2.23 | 0.19 | 0.13 | 0.10 | 0.11 | 0.068 | – | Increase in antibacterial effect relative to SC-4 [3]: ten to twenty fold increases; IC50 (E. coli 055:B5 LPS): 82 nM; LPS binding activity, fold higher than the SC4 peptide (E. coli 055:B5 LPS): ~6 fold; Hemolytic activity, fold more hemolytic than C12-SC4 (human red blood cells): roughly 3 fold; Killing of drug-resistant S. aureus strains [2]: killed both drug-resistant strains
5 | conjugated KAK: KAK peptide YG[AKAKAAKA](2) conjugated with lauric acid (YGAKAKAAKA; numbers in words are those of the source; also: dimer [AKAKAAKA](2), lauric acid conjugate, place not given here) | – | – | – | – | – | – | – | – | – | – | – | low | –
6 | C[C@H](NC(=O)[C@H](C)NC(=O)[C@H](CCCCN)NC(=O)[C@H](C)NC(=O)[C@H](C)NC(=O)[C@H](CCCCN)NC(=O)[C@H](CCCCN)NC(=O)[C@H](C)NC(=O)[C@H](C)NC(=O)[C@H](CCCCN)NC(=O)[C@H](C)NC(=O)[C@H](C)NC(=O)[C@H](CCCCN)NC(=O)[C@H](CCCCN)NC(=O)[C@H](C)NC(=O)[C@H](C)NC(=O)CNC(=O)[C@@H](N)Cc1ccc(O)cc1)C(=O)O [AKK, YGAA[KKAAKAA](2), reference compound] (H-YGAAKKAAKAAKKAAKAA-OH) | – | – | – | – | – | – | – | – | – | – | – | low | –
7 | C[C@H](NC(=O)[C@H](CCCCN)NC(=O)[C@H](C)NC(=O)[C@H](C)NC(=O)[C@H](CCCCN)NC(=O)[C@H](C)NC(=O)[C@H](CCCCN)NC(=O)[C@H](C)NC(=O)[C@H](C)NC(=O)[C@H](CCCCN)NC(=O)[C@H](C)NC(=O)[C@H](C)NC(=O)[C@H](CCCCN)NC(=O)[C@H](C)NC(=O)[C@H](CCCCN)NC(=O)[C@H](C)NC(=O)CNC(=O)[C@@H](N)Cc1ccc(O)cc1)C(=O)O [KAK, YG[AKAKAAKA](2), reference compound] (H-YGAKAKAAKAAKAKAAKA-OH) | – | – | – | – | – | – | – | – | – | – | – | low | –

— patent US20050118678A1, “Modified polypeptides with therapeutic activity and methods of use” (priority 2003, published 2005)
